Where “and” joins values, the source holds several entries; their conditions need not be identical. Identical values can stand only once. Like-named read-outs stand apart in the source and are kept apart here.
Assays:
[1] = target: purified CaMKIIα binding to GST–GluN2B-c WT (Homo sapiens, UniProt Q9UQM7); assay: CaMKII binding to immobilized GST–GluN2B-c in vitro; details: Ca2+/CaM, 1 mM ATP; GST–GluN2B-c WT
Protocol: CaMKII–GluN2B binding assays were done as described[9],[13],[25]. Briefly, GST–GluN2B-c tail (GST–2BC) was immobilized on anti-GST antibody-coated microtiter plates (Thermo Scientific), blocked for 30 min with 5% BSA and then overlaid with […] CaMKII (subunit concentration) in PIPES-buffered saline (pH 7.2) containing 2 mM Ca^2+, 1 μM CaM, 1 mM Mg^2+, 0.1% BSA and 0.1% Tween-20 for 20 min at room temperature. […] After extensive washes in buffer containing 1 mM EGTA, GST–2BC and bound CaMKII were eluted for 10 min in SDS loading buffer at 95 °C. Bound CaMKII was measured via immunoblot.

[2] = test system: purified CaMKIIα; assay: Km of CaMKII for ATP (GST-GluA1 S831 phosphorylation with increasing ATP); assay type: biochemical
[3] = test system: purified CaMKIIα; assay: as above; assay type: biochemical; details: 30 °C, 4 independent experiments, read-out: CaMKII Michaelis-Menten constant (Km) for ATP
Protocol: CaMKII-mediated phosphorylation of GluA1 S831 or GluN2B S1303 was measured by in vitro kinase reaction with a purified GST–GluA1 C-terminal tail or GST-GluN2B C-terminal tail. Reactions contained 40 nM CaMKII, 1 μM GST–GluA1, 50 mM PIPES, pH 7.1, 2 mM CaCl2, 10 mM MgCl2, 1 μM calmodulin, 1–4 mM ATP and 1 μM okadaic acid. Negative controls were prepared without ATP. Reactions were done at 30 °C for 20 s; reactions were stopped by adding SDS loading buffer and incubation in a boiling water bath for 5 min. GST, phospho-S831, CaMKII, phospho-T286 or phospho-S1303 were detected in the samples by immunoblot analysis. […]
Data are presented as mean values +/− SEM. a, Comparison of AS105 vs AS283 structure. b, Representative Immunoblots and quantification of in vitro kinase reactions at 30 °C with increasing ATP concentration measuring purified CaMKIIα phosphorylation of GST-GluA1 S831. […] Correlation indices before and after ionomycin-induced colocalization of GFP-CaMKII and mCherry-2BC under vehicle or 10 μM AS105 conditions (n = 23,18 cells; ***p < 0.001, RM two-way ANOVA with Šídák’s multiple comparisons test). Scale bar indicates 10 μm. […] CaMKII synaptic enrichment was measured before and after cLTP (n = 11,10 cells; *p < 0.05; RM two-way ANOVA with Šídák’s multiple comparisons test). […]

[4] = test system: purified CaMKIIα; set-up: method as in PMID 29294328, PMID 8385100, PMID 19857459, PMID 14558884; details: read-out: previously published Km values for ATP; cited from earlier work
[5] = test system: CA3–CA1 Schaffer collateral pathway LTP; set-up: method as in PMID 2549638; details: previous studies; cited from earlier work

| Compound | bound CaMKIIα (immunoblot, relative) [1] | CaMKIIα phosphorylation of GST-GluA1 S831 (relative) ([2]; 1.5625 uM ATP) | CaMKIIα phosphorylation of GST-GluA1 S831 (relative) ([2]; 25 uM ATP) | CaMKIIα phosphorylation of GST-GluA1 S831 (relative) ([2]; 100 uM ATP) | CaMKIIα phosphorylation of GST-GluA1 S831 (relative) ([2]; 200 uM ATP) | CaMKIIα phosphorylation of GST-GluA1 S831 (relative) ([2]; 400 uM ATP) | Km [3] [µM] | Km [4] [µM] | effect on LTP [5] |
| --- | --- | --- | --- | --- | --- | --- | --- | --- | --- |
| Nc1ncnc2c1ncn2[C@@H]1O[C@H](COP(=O)(O)OP(=O)(O)OP(=O)(O)O)[C@@H](O)[C@H]1O [ATP] | 4.397 and 5.355 and 6.655 and 4.688 | 0 | 0.594 and 0.4443 and 0.666 and 0.3478 | 0.9012 and 0.7992 and 1.006 and 0.6032 | 1.078 and 0.8135 and 1.004 and 0.7632 | 1.127 and 0.9367 (2×) | 33.3 | 8 to 127 |  |
| CC1CNCCN1S(=O)(=O)c1cccc2cnccc12 (stereo not drawn) [H7] |  |  |  |  |  |  |  |  | LTP inhibition |

Source: PMC10482691, “LTP induction by structural rather than enzymatic functions of CaMKII” (Nature, 2023)
